Seven cell lines from the supplement of paper PMC10307832 can be followed below.

Common to all, as to assay: relative viability (nuclei count vs DMSO), 5 days (fraction); higher = more cells survive
Compound in experiment [1]: NCC(=O)Nc1ccc(-n2nc(C(F)(F)F)cc2-c2ccc3c(ccc4ccccc43)c2)cc1 + Cc1nc(NC(=O)N2CCC[C@H]2C(N)=O)sc1-c1ccnc(C(C)(C)C(F)(F)F)c1 [Alpelisib] (partner 2 µM)
In a few lines: (§1)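 Lung cancer cell lines, seeded in 1536-well plates, were treated the following day by pin tool with a single drug or with five library-drug doses (not always all listed) in √10 steps on top of a fixed anchor-drug dose. Cells were fixed and nuclei stained in one step after 5 days, and nuclei were counted. Relative viability is the nuclei count for treated wells divided by that for vehicle wells, reported as medians of duplicate plates.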

Compound in experiment [2]: C1CSC2=C(C(=O)N1)SC3=C2C=C(C=C3)O [kb NB 142-70] + CC(=O)c1c(C)c2cnc(Nc3ccc(N4CCNCC4)cn3)nc2n(C2CCCC2)c1=O [Palbociclib] (partner 0.5 µM)
In a few lines:
as §1

Compound in experiment [3]: C1CSC2=C(C(=O)N1)SC3=C2C=C(C=C3)O [kb NB 142-70] + C[C@]1(O)C[C@@H](c2nc(-c3ccc4ccc(-c5ccccc5)nc4c3)c3c(N)nccn32)C1 [Linsitinib] (partner 1 µM)
In a few lines: as §1

Compound in experiment [4]: C1CSC2=C(C(=O)N1)SC3=C2C=C(C=C3)O [kb NB 142-70] + CC1(C)CCC(c2ccc(Cl)cc2)=C(CN2CCN(c3ccc(C(=O)NS(=O)(=O)c4ccc(N[C@H](CCN5CCOCC5)CSc5ccccc5)c(S(=O)(=O)C(F)(F)F)c4)cc3)CC2)C1 [Navitoclax] (partner 0.5 µM)
In a few lines: as §1

Compound in experiment [5]: NCC(=O)Nc1ccc(-n2nc(C(F)(F)F)cc2-c2ccc3c(ccc4ccccc43)c2)cc1 + N=C(N)NC(=N)NCCc1ccccc1 [Phenformin] (partner 250 µM)
In a few lines: as §1

On to LOU-NH91, for which the relative viability amounted to 0.789 in experiment [1] (first compound 0.02 µM); 0.788 in experiment [1] (first compound 0.06325 µM); 0.702 in experiment [1] (first compound 0.2 µM); 0.775 in experiment [1] (first compound 0.6325 µM); 0.799 in experiment [1] (first compound 2 µM); 0.494 in experiment [2] (first compound 0.1 µM). The relative viability in experiment [2] (first compound 1 µM) was determined as 0.536; in experiment [2] (first compound 3.162 µM), 0.417; in experiment [3] (first compound 0.1 µM), 0.911; in experiment [3] (first compound 1 µM), 0.882; in experiment [3] (first compound 3.162 µM) it was 0.612; in experiment [4] (first compound 0.1 µM) it was 0.753. Besides, the relative viability in experiment [4] (first compound 1 µM) came to 0.632; in experiment [4] (first compound 3.162 µM), 0.438; in experiment [5] (first compound 0.02 µM), 0.652; in experiment [5] (first compound 0.06325 µM), 0.748; in experiment [5] (first compound 0.2 µM), 0.686; in experiment [5] (first compound 0.6325 µM) it was 0.671. Besides, the relative viability in experiment [5] (first compound 2 µM) amounted to 0.778.

In the case of LU99A, the relative viability in experiment [1] (first compound 0.02 µM) was 0.563; in experiment [1] (first compound 0.06325 µM), 0.489; in experiment [1] (first compound 0.2 µM), 0.56; in experiment [1] (first compound 0.6325 µM), 0.562; in experiment [1] (first compound 2 µM), 0.456; in experiment [2] (first compound 0.1 µM) it was 0.379. Further, the relative viability in experiment [2] (first compound 1 µM) is 0.447; in experiment [2] (first compound 3.162 µM), 0.413; in experiment [3] (first compound 0.1 µM), 0.519; in experiment [3] (first compound 1 µM), 0.518; in experiment [3] (first compound 3.162 µM), 0.341; in experiment [4] (first compound 0.1 µM), 0.845. The relative viability in experiment [4] (first compound 1 µM) came to 0.816; in experiment [4] (first compound 3.162 µM), 0.598; in experiment [5] (first compound 0.02 µM) it was 0.76; in experiment [5] (first compound 0.06325 µM) it was 0.877; in experiment [5] (first compound 0.2 µM) it was 0.908; in experiment [5] (first compound 0.6325 µM) it was 0.824. Besides, the relative viability in experiment [5] (first compound 2 µM) worked out at 0.921.

Regarding LXF-289, the relative viability was determined as 1.08 in experiment [1] (first compound 0.02 µM); 1.08 in experiment [1] (first compound 0.06325 µM); 1.09 in experiment [1] (first compound 0.2 µM); 1.06 in experiment [1] (first compound 0.6325 µM); 1.01 in experiment [1] (first compound 2 µM); 0.578 in experiment [2] (first compound 0.1 µM). The relative viability in experiment [2] (first compound 1 µM) was 0.613; in experiment [2] (first compound 3.162 µM), 0.567; in experiment [3] (first compound 0.1 µM), 0.914; in experiment [3] (first compound 1 µM) it was 0.92; in experiment [3] (first compound 3.162 µM), 0.916; in experiment [4] (first compound 0.1 µM), 0.938. For the same cell line, the relative viability in experiment [4] (first compound 1 µM) is 0.986; in experiment [4] (first compound 3.162 µM), 0.942; in experiment [5] (first compound 0.02 µM), 0.516; in experiment [5] (first compound 0.06325 µM), 0.527; in experiment [5] (first compound 0.2 µM), 0.494; in experiment [5] (first compound 0.6325 µM) it was 0.506. In addition, the relative viability in experiment [5] (first compound 2 µM) was 0.56.

NCI-H23: the relative viability is 0.59 in experiment [1] (first compound 0.02 µM); 0.774 in experiment [1] (first compound 0.06325 µM); 0.865 in experiment [1] (first compound 0.2 µM); 0.806 in experiment [1] (first compound 0.6325 µM); 0.725 in experiment [1] (first compound 2 µM); 0.409 in experiment [2] (first compound 0.1 µM). Besides, the relative viability was 0.471 in experiment [2] (first compound 1 µM); 0.28 in experiment [2] (first compound 3.162 µM); 0.708 in experiment [3] (first compound 0.1 µM); 0.529 in experiment [3] (first compound 1 µM); 0.289 in experiment [3] (first compound 3.162 µM); 0.775 in experiment [4] (first compound 0.1 µM). The relative viability was 0.735 in experiment [4] (first compound 1 µM); 0.331 in experiment [4] (first compound 3.162 µM); 0.702 in experiment [5] (first compound 0.02 µM); 0.801 in experiment [5] (first compound 0.06325 µM); 0.802 in experiment [5] (first compound 0.2 µM); 0.823 in experiment [5] (first compound 0.6325 µM). In addition, the relative viability in experiment [5] (first compound 2 µM) was 0.799.

For NCI-H322M, the relative viability is 0.756 in experiment [1] (first compound 0.02 µM); 0.772 in experiment [1] (first compound 0.06325 µM); 0.824 in experiment [1] (first compound 0.2 µM); 0.657 in experiment [1] (first compound 0.6325 µM); 0.831 in experiment [1] (first compound 2 µM); 0.541 in experiment [2] (first compound 0.1 µM). The relative viability in experiment [2] (first compound 1 µM) turned out to be 0.511; in experiment [2] (first compound 3.162 µM), 0.505; in experiment [3] (first compound 0.1 µM), 0.89; in experiment [3] (first compound 1 µM), 1.03; in experiment [3] (first compound 3.162 µM), 0.938; in experiment [4] (first compound 0.1 µM) it was 1.2. The relative viability in experiment [4] (first compound 1 µM) was determined as 1.15; in experiment [4] (first compound 3.162 µM) it was 1.11; in experiment [5] (first compound 0.02 µM), 0.808; in experiment [5] (first compound 0.06325 µM), 0.739; in experiment [5] (first compound 0.2 µM), 0.766; in experiment [5] (first compound 0.6325 µM), 0.747. For the same cell line, the relative viability in experiment [5] (first compound 2 µM) turned out to be 0.811.

As to NCI-H441, the relative viability stood at 0.906 in experiment [1] (first compound 0.02 µM); 0.715 in experiment [1] (first compound 0.06325 µM); 0.869 in experiment [1] (first compound 0.2 µM); 1.01 in experiment [1] (first compound 0.6325 µM); 0.654 in experiment [1] (first compound 2 µM); 0.237 in experiment [2] (first compound 0.1 µM). Also, the relative viability in experiment [2] (first compound 1 µM) is 0.209; in experiment [2] (first compound 3.162 µM), 0.169; in experiment [3] (first compound 0.1 µM), 0.656; in experiment [3] (first compound 1 µM), 0.457; in experiment [3] (first compound 3.162 µM), 0.356; in experiment [4] (first compound 0.1 µM), 0.683. Besides, the relative viability in experiment [4] (first compound 1 µM) amounted to 0.369; in experiment [4] (first compound 3.162 µM), 0.34; in experiment [5] (first compound 0.02 µM), 0.898; in experiment [5] (first compound 0.06325 µM), 0.819; in experiment [5] (first compound 0.2 µM), 0.954; in experiment [5] (first compound 0.6325 µM), 1.01. For the same cell line, in experiment [5] (first compound 2 µM), the relative viability was determined as 0.844.

Take NCI-H460: the relative viability in experiment [1] (first compound 0.02 µM) stood at 0.576; in experiment [1] (first compound 0.06325 µM), 0.425; in experiment [1] (first compound 0.2 µM), 0.486; in experiment [1] (first compound 0.6325 µM), 0.491; in experiment [1] (first compound 2 µM), 0.449; in experiment [2] (first compound 0.1 µM), 0.166. Moreover, the relative viability in experiment [2] (first compound 1 µM) was determined as 0.233; in experiment [2] (first compound 3.162 µM), 0.171; in experiment [3] (first compound 0.1 µM), 0.704; in experiment [3] (first compound 1 µM) it was 1; in experiment [3] (first compound 3.162 µM), 0.277; in experiment [4] (first compound 0.1 µM) it was 0.978. Moreover, the relative viability in experiment [4] (first compound 1 µM) came to 1.25; in experiment [4] (first compound 3.162 µM), 0.305; in experiment [5] (first compound 0.02 µM) it was 0.482; in experiment [5] (first compound 0.06325 µM), 0.504; in experiment [5] (first compound 0.2 µM) it was 0.505; in experiment [5] (first compound 0.6325 µM) it was 0.537. The relative viability in experiment [5] (first compound 2 µM) is 0.458.
